From patent US20250319026A1, “VITAMIN COMPOSITION FOR ORAL ADMINISTRATION” (priority 2023, published 2025)

Experiment: Concentrations of B vitamins obtainable in solution using polysorbate 40 as a solvent
Type: physicochemical
Conditions: polysorbate 40 as a solvent in an amount of at least 1.8 wt. %; water
Source text: One of the major disadvantages and drawbacks of the aforementioned prior art references is the absence of both pyridoxine, thiamine, cyanocobalamin in sufficiently high concentrations to ensure the supply of these vitamins to cover the necessary needs of the body.

With cyanocobalamin the “concentration obtainable in the solution” value was “at least 0.1 wt. %”.
